The results in this text go back to PMC4144957, “Molecular Interaction Mechanism between 2-Mercaptobenzimidazole and Copper-Zinc Superoxide Dismutase” (PLoS ONE, 2014).

The target in the experiment is T1, Cu/ZnSOD from porcine erythrocytes (Sus scrofa, UniProt P04178).
T1 construct: gene SOD1; native, purchased (Biodee Biotechnology), from porcine erythrocytes; homodimer; human structure 1HL4 used only for docking
In words: NBT photoreduction assay. The settings on record: read-out: relative activity (%) at 100 nM MBI. The class given is biochemical.

T1 sequence (P04178 2-153): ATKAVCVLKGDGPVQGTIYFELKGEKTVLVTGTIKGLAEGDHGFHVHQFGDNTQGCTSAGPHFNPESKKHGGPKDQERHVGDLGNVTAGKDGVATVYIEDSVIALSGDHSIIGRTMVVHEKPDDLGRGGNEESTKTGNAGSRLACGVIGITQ

For the compound `S=c1[nH]c2ccccc2[nH]1` [MBI], the activity at 0.1 µM was found to be 89.3 ± 1.2%.
